# Columns and labels:
# Assay in all cases: biochemical
# Format in all cases: biochemical
# 382 unique human kinases [1] = target: T1, 382 unique human kinases (Homo sapiens, UniProt P10721); settings: c-Kit, 10 uM; for remaining activity at 10 µM: read-out: % Enzyme Activity (relative to DMSO controls)
# T1 construct: purchased Reaction Biology (HotSpot contract assay)
# 382 unique human kinases [2] = target: T2, 382 unique human kinases (Homo sapiens, UniProt P22607, G697C); settings: FGFR3 (G697C), 10 uM; for remaining activity at 10 µM: read-out: % Enzyme Activity (relative to DMSO controls)
# T2 construct: purchased Reaction Biology (HotSpot contract assay)
# T2 sequence (P22607 23-806 G697C): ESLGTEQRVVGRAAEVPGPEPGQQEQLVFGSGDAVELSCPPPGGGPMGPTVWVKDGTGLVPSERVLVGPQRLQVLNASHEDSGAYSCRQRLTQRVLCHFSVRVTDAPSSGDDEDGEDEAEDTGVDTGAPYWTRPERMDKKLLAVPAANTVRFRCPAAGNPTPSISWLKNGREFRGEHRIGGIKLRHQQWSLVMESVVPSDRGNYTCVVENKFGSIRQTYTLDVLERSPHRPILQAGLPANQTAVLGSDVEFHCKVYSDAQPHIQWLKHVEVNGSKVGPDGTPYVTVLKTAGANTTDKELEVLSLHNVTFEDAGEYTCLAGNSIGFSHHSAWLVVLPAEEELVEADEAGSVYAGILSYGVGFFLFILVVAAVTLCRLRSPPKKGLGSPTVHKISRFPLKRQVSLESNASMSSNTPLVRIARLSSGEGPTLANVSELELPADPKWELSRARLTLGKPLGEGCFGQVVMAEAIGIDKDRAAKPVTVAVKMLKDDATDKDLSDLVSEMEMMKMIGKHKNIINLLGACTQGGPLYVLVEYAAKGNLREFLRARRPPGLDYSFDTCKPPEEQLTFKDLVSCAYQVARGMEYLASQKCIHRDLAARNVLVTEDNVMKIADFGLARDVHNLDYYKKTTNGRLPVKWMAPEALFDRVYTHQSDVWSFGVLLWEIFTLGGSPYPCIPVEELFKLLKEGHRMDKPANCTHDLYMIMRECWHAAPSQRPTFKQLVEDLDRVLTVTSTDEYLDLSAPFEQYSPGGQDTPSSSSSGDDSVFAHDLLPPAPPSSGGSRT
# 382 unique human kinases [3] = target: T3, 382 unique human kinases (Homo sapiens, UniProt Q99759); settings: MEKK3, compound at 10 uM, duplicate values; for remaining activity at 10 µM: read-out: % Enzyme Activity (relative to DMSO controls)
# T3 construct: purchased Reaction Biology (HotSpot contract assay)
# T3 sequence (Q99759 1-626): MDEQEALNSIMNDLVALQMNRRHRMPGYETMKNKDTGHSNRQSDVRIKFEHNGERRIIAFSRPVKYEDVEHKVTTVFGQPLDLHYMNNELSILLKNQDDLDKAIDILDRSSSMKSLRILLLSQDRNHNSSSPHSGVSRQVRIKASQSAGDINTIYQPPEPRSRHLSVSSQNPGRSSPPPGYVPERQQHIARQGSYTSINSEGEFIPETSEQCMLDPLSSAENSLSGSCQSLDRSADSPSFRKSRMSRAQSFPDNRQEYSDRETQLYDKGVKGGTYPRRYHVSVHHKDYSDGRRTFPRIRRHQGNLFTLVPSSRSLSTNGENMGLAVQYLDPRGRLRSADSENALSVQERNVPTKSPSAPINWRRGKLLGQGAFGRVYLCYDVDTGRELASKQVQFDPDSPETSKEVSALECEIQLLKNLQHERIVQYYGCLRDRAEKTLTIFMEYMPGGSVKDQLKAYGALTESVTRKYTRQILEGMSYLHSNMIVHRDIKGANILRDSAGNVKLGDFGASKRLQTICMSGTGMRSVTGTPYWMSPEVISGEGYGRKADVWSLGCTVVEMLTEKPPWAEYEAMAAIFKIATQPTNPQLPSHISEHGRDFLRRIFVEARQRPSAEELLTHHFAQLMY
# 382 unique human kinases [4] = target: T4, 382 unique human kinases (Homo sapiens, UniProt Q13627); settings: DYRK1/DYRK1A, 10 uM; for remaining activity at 10 µM: read-out: % Enzyme Activity (relative to DMSO controls)
# T4 construct: purchased Reaction Biology (HotSpot contract assay)
# 382 unique human kinases [5] = target: T5, 382 unique human kinases (Homo sapiens, UniProt Q9Y3S1); settings: WNK2, 10 uM; for remaining activity at 10 µM: read-out: % Enzyme Activity (relative to DMSO controls)
# T5 construct: purchased Reaction Biology (HotSpot contract assay)
# 382 unique human kinases [6] = target: T6, 382 unique human kinases (Homo sapiens, UniProt P78362); settings: kinase SRPK2, compound 10 uM; for remaining activity at 10 µM: read-out: % Enzyme Activity (relative to DMSO controls)
# T6 construct: purchased Reaction Biology (HotSpot contract assay)
# T6 sequence (P78362 whole entry): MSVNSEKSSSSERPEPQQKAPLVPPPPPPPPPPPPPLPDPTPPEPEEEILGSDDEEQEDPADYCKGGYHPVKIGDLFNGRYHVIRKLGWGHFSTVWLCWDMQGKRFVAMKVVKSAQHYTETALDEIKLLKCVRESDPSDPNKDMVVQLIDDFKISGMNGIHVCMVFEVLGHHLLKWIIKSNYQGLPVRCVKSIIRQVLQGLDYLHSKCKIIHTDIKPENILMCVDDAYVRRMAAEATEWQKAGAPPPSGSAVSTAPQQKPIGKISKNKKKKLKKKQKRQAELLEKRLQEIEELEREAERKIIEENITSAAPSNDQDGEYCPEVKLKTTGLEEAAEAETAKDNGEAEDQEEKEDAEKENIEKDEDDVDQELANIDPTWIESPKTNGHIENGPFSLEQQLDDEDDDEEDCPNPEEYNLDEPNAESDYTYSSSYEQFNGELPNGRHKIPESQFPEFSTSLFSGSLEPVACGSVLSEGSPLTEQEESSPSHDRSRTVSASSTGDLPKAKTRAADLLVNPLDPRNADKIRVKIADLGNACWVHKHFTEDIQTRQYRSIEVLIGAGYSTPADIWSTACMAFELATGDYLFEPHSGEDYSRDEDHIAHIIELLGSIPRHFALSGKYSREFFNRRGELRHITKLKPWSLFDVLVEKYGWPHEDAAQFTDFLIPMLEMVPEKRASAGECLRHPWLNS
# 382 unique human kinases [7] = target: T7, 382 unique human kinases (Homo sapiens, UniProt O14757); settings: CHK1, 10 uM; for remaining activity at 10 µM: read-out: % Enzyme Activity (relative to DMSO controls)
# T7 construct: purchased Reaction Biology (HotSpot contract assay)
# T7 sequence (O14757 1-476): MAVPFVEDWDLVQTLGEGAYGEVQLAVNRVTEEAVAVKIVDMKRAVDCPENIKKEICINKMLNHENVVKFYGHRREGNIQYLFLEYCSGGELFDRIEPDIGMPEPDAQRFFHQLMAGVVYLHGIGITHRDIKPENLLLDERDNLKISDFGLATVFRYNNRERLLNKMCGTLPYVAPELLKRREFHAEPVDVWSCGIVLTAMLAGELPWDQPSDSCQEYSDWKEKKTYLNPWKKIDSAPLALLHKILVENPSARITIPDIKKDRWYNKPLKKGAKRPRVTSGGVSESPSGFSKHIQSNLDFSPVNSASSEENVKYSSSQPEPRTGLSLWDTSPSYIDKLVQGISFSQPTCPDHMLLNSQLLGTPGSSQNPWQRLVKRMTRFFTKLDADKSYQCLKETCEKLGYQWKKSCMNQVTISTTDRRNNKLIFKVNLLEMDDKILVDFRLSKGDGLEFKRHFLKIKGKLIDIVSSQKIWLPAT
# 382 unique human kinases [8] = target: T8, 382 unique human kinases (Homo sapiens, UniProt Q9Y6E0); settings: MST3/STK24, [ATP] 20 µM, compound 10 uM; for remaining activity at 10 µM: read-out: % Enzyme Activity (relative to DMSO controls)
# T8 construct: purchased Reaction Biology (HotSpot contract assay)
# T8 sequence (Q9Y6E0 whole entry): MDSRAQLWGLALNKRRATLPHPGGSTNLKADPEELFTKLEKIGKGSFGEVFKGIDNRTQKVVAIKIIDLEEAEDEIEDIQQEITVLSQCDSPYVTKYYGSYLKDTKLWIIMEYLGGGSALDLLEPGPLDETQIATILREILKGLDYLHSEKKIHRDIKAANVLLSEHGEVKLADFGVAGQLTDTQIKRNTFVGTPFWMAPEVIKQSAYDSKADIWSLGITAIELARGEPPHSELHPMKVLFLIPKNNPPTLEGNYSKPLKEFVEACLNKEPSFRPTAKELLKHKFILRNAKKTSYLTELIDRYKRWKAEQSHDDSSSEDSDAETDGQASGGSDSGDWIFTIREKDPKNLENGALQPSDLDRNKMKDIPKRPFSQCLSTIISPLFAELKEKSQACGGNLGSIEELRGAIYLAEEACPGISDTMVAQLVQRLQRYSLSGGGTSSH
# 382 unique human kinases [9] = target: T9, 382 unique human kinases (Homo sapiens, UniProt P36888); settings: FLT3, [ATP] 50 µM, compound 10 uM; for remaining activity at 10 µM: read-out: % Enzyme Activity (relative to DMSO controls)
# T9 construct: purchased Reaction Biology (HotSpot contract assay)
# T9 sequence (P36888 27-993): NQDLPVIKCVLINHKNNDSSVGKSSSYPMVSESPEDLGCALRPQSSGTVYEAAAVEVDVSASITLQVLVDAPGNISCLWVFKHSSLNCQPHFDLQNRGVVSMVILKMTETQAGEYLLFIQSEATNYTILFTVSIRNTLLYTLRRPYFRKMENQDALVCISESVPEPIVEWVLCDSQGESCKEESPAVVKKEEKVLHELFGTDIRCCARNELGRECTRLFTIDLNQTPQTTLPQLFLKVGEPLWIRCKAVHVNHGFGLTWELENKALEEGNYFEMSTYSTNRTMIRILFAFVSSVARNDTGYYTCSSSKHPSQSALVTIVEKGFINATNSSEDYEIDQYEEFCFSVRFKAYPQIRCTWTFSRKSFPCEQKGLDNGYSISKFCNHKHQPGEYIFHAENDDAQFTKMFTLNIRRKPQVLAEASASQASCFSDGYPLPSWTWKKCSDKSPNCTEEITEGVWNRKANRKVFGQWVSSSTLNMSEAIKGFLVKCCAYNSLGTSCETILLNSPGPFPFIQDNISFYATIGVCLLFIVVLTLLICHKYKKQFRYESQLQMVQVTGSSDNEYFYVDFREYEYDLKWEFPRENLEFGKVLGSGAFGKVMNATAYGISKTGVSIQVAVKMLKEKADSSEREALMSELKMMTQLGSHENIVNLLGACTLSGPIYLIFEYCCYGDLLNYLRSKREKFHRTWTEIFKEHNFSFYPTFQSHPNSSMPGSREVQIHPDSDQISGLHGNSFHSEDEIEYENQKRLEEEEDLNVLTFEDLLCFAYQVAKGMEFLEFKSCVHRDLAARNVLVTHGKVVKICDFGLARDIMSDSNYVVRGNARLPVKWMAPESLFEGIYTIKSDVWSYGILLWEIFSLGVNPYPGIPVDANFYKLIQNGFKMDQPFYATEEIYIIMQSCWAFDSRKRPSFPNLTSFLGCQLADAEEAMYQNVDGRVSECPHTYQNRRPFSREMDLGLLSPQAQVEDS
# 382 unique human kinases [10] = target: T10, 382 unique human kinases (Homo sapiens, UniProt P10721, D816H); settings: c-Kit (D816H), [ATP] 5 µM, compound 10 uM; for remaining activity at 10 µM: read-out: % Enzyme Activity (relative to DMSO controls)
# T10 construct: purchased Reaction Biology (HotSpot contract assay)
# T10 sequence (P10721 26-976 D816H): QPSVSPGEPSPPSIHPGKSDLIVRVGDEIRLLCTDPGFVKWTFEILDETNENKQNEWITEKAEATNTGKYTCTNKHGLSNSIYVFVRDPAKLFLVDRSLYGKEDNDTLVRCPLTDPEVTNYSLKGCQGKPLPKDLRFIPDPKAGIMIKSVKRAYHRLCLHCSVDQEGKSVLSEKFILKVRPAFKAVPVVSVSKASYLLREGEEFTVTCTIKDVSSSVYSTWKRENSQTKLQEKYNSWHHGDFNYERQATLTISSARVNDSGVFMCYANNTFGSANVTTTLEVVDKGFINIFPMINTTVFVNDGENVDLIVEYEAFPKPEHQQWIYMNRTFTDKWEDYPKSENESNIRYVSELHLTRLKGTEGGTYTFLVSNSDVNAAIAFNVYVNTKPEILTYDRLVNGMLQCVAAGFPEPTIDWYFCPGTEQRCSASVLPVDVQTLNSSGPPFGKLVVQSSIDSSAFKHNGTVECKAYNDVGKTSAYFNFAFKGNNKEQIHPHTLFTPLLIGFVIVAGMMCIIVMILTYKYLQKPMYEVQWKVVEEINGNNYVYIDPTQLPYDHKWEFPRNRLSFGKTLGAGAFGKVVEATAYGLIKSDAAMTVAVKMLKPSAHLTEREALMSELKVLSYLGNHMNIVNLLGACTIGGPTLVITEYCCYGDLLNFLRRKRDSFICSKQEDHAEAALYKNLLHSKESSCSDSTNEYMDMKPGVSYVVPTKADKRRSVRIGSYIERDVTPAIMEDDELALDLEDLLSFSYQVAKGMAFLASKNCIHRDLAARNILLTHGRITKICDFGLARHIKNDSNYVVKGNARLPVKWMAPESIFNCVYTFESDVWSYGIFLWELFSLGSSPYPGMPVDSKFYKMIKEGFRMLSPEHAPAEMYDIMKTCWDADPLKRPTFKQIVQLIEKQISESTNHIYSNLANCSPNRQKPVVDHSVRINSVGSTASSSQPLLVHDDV
# T1 sequence (P10721 26-976): as the sequence (P10721 26-976 D816H) above, with H791D counted along it
SMILES,remaining activity at 10 µM (382 unique human kinases [1]),remaining activity at 10 µM (382 unique human kinases [2]),remaining activity at 10 µM (382 unique human kinases [3]),remaining activity at 10 µM (382 unique human kinases [4]),remaining activity at 10 µM (382 unique human kinases [5]),remaining activity at 10 µM (382 unique human kinases [6]),remaining activity at 10 µM (382 unique human kinases [7]),% Enzyme Activity (relative to DMSO controls) (382 unique human kinases [8]),remaining activity at 10 µM (382 unique human kinases [8]),% Enzyme Activity (relative to DMSO controls) (382 unique human kinases [9]),remaining activity at 10 µM (382 unique human kinases [9]),% Enzyme Activity (relative to DMSO controls) (382 unique human kinases [10]),remaining activity at 10 µM (382 unique human kinases [10]),% Enzyme Activity (relative to DMSO controls) (382 unique human kinases [1]),% Enzyme Activity (relative to DMSO controls) (382 unique human kinases [2]),% Enzyme Activity (relative to DMSO controls) (382 unique human kinases [3]),% Enzyme Activity (relative to DMSO controls) (382 unique human kinases [4]),% Enzyme Activity (relative to DMSO controls) (382 unique human kinases [5]),% Enzyme Activity (relative to DMSO controls) (382 unique human kinases [6]),% Enzyme Activity (relative to DMSO controls) (382 unique human kinases [7])
CC(C)c1cc(-c2n[nH]c(=O)n2-c2ccc3c(ccn3C)c2)c(O)cc1O [Ganetespib (STA9090)],80.8%,61.9%,106%,69.6%,59.5%,89.8%,74.7%,,,,,,,,,,,,,
CCNC(=O)c1noc(-c2cc(C(C)C)c(O)cc2O)c1-c1ccc(CN2CCOCC2)cc1 [Luminespib],,,,,,,,58.15%,60%,80.03%,80.1%,83.99%,84.3%,,,,,,,
CCNC(=O)c1noc(-c2cc(C(C)C)c(O)cc2O)c1-c1ccc(CN2CCOCC2)cc1 [Luminespib (AUY-922)],72.9%,104%,122%,97.2%,107%,99.5%,106%,,,,,,,72.90%,102.74%,120.79%,94.59%,106.80%,97.52%,105.20%
CC(C)c1cc(-c2n[nH]c(=O)n2-c2ccc3c(ccn3C)c2)c(O)cc1O [Ganetespib],,,,,,,,,72.1%,,30.4%,,46.4%,,,,,,,
